Data taken from patent US20210290680A1, “METHODS AND COMPOSITIONS FOR MODULATING CELLULAR AGING” (Dorian Therapeutics, Inc., priority 2019, published 2021).

Test system: CD19.CAR and GD2.CAR T cells
Assay: CAR-T cell proliferation (fold increase compared to control cells)
Format: cell-based, human
Description: Plasmids encoding for 2nd generation CAR specific for CD19 (Lenti-EF1a-CD19(FMC63)-2nd-CAR(CD28)-EGFRt) or GD2 (Lenti-EF1a-GD2(14G2a)-2nd-CAR(CD28)-EGFRt) were purchased from Creative Biolabs. The CAR containing plasmids were engineered to co-express a shRNA targeting USP16. The shRNA sequences are: shUSP16 #1 5′-[…]-3′ (SEQ ID NO: 8) and shUSP16 #2 5′-[…]-3′ (SEQ ID NO: 9). Primary T cells were activated as described (Example 3), transduced with a lentivirus encoding for either a CD19.CAR or a GD2.CAR co-expressing shUSP16 #1, shUSP16 #2 or a scrambled shRNA (Control). Cells were cultured in IL-2 and sorted between days 6-13 for EGFRt. Briefly, cells were stained with biotin EGFR antibody (R&D) and magnetically sorted with anti-biotin or streptavidin conjugated beads (Miltenyi Biotec) using the LS columns (Miltenyi Biotec). The positive population was isolated and expanded in regular TC-treated plates or in G-Rex 6 well culture plate (Wilson Wolf). The G-Rex platform was used to achieve a rapid expansion of T cells for in vitro and in vivo applications.
Primary T cells were activated as described (Example 3), transduced with a lentivirus encoding for either a CD19.CAR or a GD2.CAR co-expressing shUSP16 #1, shUSP16 #2 or a scrambled shRNA (Control). Cells were cultured in IL-2 and sorted between days 6-13 for EGFRt. Cells were plated post-sorting with a purity higher than 85% and counted every 2-4 days by Trypan Blue exclusion using Vi-CELL XR cell counter. Fifteen days post-activation both CD19.CAR and GD2.CAR T cells were collected, and qPCR was performed to verify downregulation of USP16 expression (FIG. 24) (fold change GD2.CAR (n=3): Control vs shUSP #1: 0.35, p<0.0001, and Control vs shUSP16 #2: 0.2452, p<0.0001, fold change CD19.CAR (n=4): Control vs shUSP #1: 0.2891, p<0.0001, and Control vs shUSP16 #2: 0.2566, p<0.0001). Proliferation was measured as fold increase compared to control cells at day 15 (FIG. 25).

shUSP16 #1: shRNA targeting USP16, 5′-GACTGTAAGACTGACAATAAA-3′ (SEQ ID NO: 8), pSIH backbone or co-expressed in CAR plasmid
T cell expansion, fold change vs Control (CD19.CAR, day 15, n=4): 2.259 | T cell expansion, fold change vs Control (GD2.CAR, day 15, n=3): 2.147

shUSP16 #2: shRNA targeting USP16, 5′-TATATCAGTTCACCCGTAAT-3′ (SEQ ID NO: 9), pSIH backbone or co-expressed in CAR plasmid
T cell expansion, fold change vs Control (CD19.CAR, day 15, n=4): 3.036 | T cell expansion, fold change vs Control (GD2.CAR, day 15, n=3): 3.036
